Reference: US6693132B2, “Methods for using alkanoyloxymethyl esters” (Beacon Laboratories, Inc., priority 2000, dated 2004)

Tests used:
[1] = system: PC-3 prostate cancer cells; test: EDR anti-proliferation assay (3H-thymidine incorporation, soft agar) against PC-3 prostate cancer cells; type: cell-based; settings: Homo sapiens; PC-3 cells in soft agar, five days incubation, 3H-TdR incorporation
Description: The PC-3 cell line was maintained in RPMI supplemented with 10% fetal calf serum and antibiotics. […] Cells were suspended in 0.12% soft agar in complete medium and plated (2,000 cells per well, as determined by preliminary experiments) in different drug concentrations onto a 0.4% agarose underlayer in 24-well plates. Plating cells on agarose underlayers supports the proliferation only of the transformed cells, ensuring that the growth signal stems from the malignant component of the tumor.
All compounds were dissolved in DMSO to 200× stock solutions. Stock solutions were diluted to 20× working solutions using the tissue culture medium, serially diluted and added to the 24-well plates. […] No significant changes in pH of the culture medium were observed under the above conditions. Diluent control wells contained PC3 cells treated with DMSO, at the dilutions used for appropriate drug treatment. All experimental points were represented by two separate wells (duplicates). Positive controls were determined using at least two wells treated with an extremely high dose of cisplatin, an anti-cancer agent. Four wells containing tumor cells that were not treated with drugs served as negative controls in each experiment.
Cells were incubated with drugs under standard culture conditions for five days. Cultures were pulsed with tritiated thymidine (^3H-TdR, New Life Science Products, Boston, Mass.) at 5 μCi per well for the last 48 hours of the culture period. Cell culture plates were then heated to 90° C. to liquefy the agarose, and cells were harvested onto glass fiber filters, which were then placed into counting vials containing liquid scintillation fluid. The radioactivity trapped on the filters was counted with a Beckman scintillation counter. The fraction of surviving cells was determined by comparing ^3H-TdR incorporation in treated (experimental points) and untreated (negative control) wells. […] IC50 values were determined using the approximated sigmoidal curves and expressed as μM.

[2] = biological target: histone deacetylase isolated from rat liver; test: Histone deacetylase inhibition assay with fluorescent substrate MAL, HPLC determination; type: biochemical; settings: 37° C. 90 minutes, IC50 from five dilutions, read-out: HDAC
Protocol: The inhibition of histone deacetylase was determined according to methods generally described by Hoffmann et al., Nucleic Acids Res. 27:2057-8 (1999). The histone deacetylase was isolated from rat liver as previously described by M. Tung. The compounds tested were initially dissolved in either ethanol or in DMSO to provide working stock solutions.
The assay was performed in a final volume of 120 μL total, consisting of 100 μL of 15 μM tris-HCl buffer (pH 7.9) also containing 0.25 μM EDTA, 10 μM NaCl, 10% glycerol, 10 μM mercaptoethanol and the enzyme. The assay was initiated upon the addition of 10 ml of one of the compounds being tested, followed by the addition of the fluorescence-labeled lysine substrate to each assay tube in an ice bath for 15 minutes. The tubes were transferred to a water bath at 37° C. for an additional 90 minutes.
The fluorescent substrate described by Hoffmann was modified to increase the precision and accuracy by the addition of an internal standard for the HPLC determination. The synthetic substrate, MAL is N-(4-methyl-7-coumarinyl)-N-α(tert-butyloxy-carbonyl)-N-Ω-acetyllysineamide.
An initial assay was performed to determine the range of activity of each compound. […] All values are the result of two or more experiments.

IC50 [1] [µM]	IC50 [2] [µM]	SMILES
0.005		CC(/C=C/C(=O)NO)=C\[C@@H](C)C(=O)c1ccc(N(C)C)cc1 [trichostatin]
30	590	CCC(=O)OCOC(=O)CC [POMP, propionoyloxymethyl propionate]
> 2000	4500	CCCC(=O)O [butyric acid]
